These results are taken from patent US5073571A, “Method of inhibiting virus” (priority 1989, dated 1991).

Structures are written as SMILES.

In series [1] the test system is HIV-1. In words: Syncytia assay in HIV-1 infected H9 cells. As to conditions: compared to infected, untreated H9 controls. Format: cell-based, HIV-1 strain HXB2gptX (in human H9 cells). The procedure:
(§1) Media was changed every other day. The effect of these compounds on virus production was determined by measuring the reverse transcriptase (RT) activity in samples of the cell culture supernatants. […] Negative controls consisted of no additions or 0.1ethanol. The results of duplicate assays were averaged. Panel B -Concentration-dependent effects of 13-oxamyristic acid on HIV-1 replication as measured by RT activity (percent of untreated control) and the presence of p24 antigen (ng/ml determined by ELISA). Error bars indicate the S.E.M. of assays done in triplicate. Panel C - The effect of 13-oxamyristic acid on syncytia formation using an arbitrary scale described under Materials and Methods, Example 16, below. Panel D - Toxicity of 13-oxamyristic acid determined by viable cell count (trypan blue exclusion), as well as by [^3 H]thymidine and [^3 H]leucine labeling (see under Materials and Methods, Example 16, below). The incorporation of these radiolabeled compounds was determined in the total cell population contained in a well after 10 days of treatment with the analog. Duplicate assays were performed and the results averaged.
Assay for HIV-1 Replication. The human T-lymphoid cell line, H9, was provided by R. D. Gallo (NIH) and maintained in RPMI-1640 medium supplemented with 10% fetal bovine serum, 100 IU/mL penicillin, 100 μg/mL streptomycin an 2 mM L-glutamine. […] The titer of the virus stock was determined by serial dilution using syncytia formation and reverse transcriptase activity (see below) as a measure of infectivity in H9 cells. […]
Syncytia Assay. The number of syncytia in each well was determined by microscopic examination on days 4-6 (infected, untreated control cultures), 8 and 10 (analog or decanoate treated cultures). The average number of multi-nucleated giant cells counted per 10 low-power fields (LPF =40 times magnification) was assigned to an arbitrary syncytia scale: 0=<1/LPF, 1+=1-4/LPF, 2+=5-7/LPF, 3+= 8-10/LPF, 4+=>10/LPF. By this criteria uninfected, control cells had zero synctia, and infected, untreated H9 cells were consistently scored as 4+.

The test system of series [2] is HIV-1. In words: HIV-1 replication in H9 cells, reverse transcriptase activity of culture supernatants (acute infection). Format: cell-based, HIV-1 strain HXB2gptX (in human H9 cells). As to conditions: for activity at 100 µM: Human immunodeficiency virus 1, H9, 240 h, read-out: reverse transcriptase (RT) activity; for effect on reverse transcriptase activity: 1-10 μM, 10 day incubation, HIV-1 infected H9 cells. The protocol:
as §1
Assay for HIV-1 Replication. The human T-lymphoid cell line, H9, was provided by R. D. Gallo (NIH) and maintained in RPMI-1640 medium supplemented with 10% fetal bovine serum, 100 IU/mL penicillin, 100 μg/mL streptomycin an 2 mM L-glutamine. HIV-1 strain HXB2gptX [Fisher et al., Science 233, 655-659 (1986)] was obtained from cultures of chronically infected H9 cells [Popovic et al., Science 224, 497-500 (1984)]< filtered through 0.2 μm Millipore filters and stored at -90° C. The titer of the virus stock was determined by serial dilution using syncytia formation and reverse transcriptase activity (see below) as a measure of infectivity in H9 cells.
Cell-free HIV-1, at a multiplicity of infection (m.o.i.) equal to 0.01-0.001, was added to 10^7 H9 cells which had been pretreated with 2 μg/ml Polybrene® (hexadimethrene bromide, Sigma). Following a 30 min incubation at 37° C. to absorb the virus, 4 × 10^5 of virus treated cells in 1 mL of fresh medium (plus 10% fetal calf serum, pencillin and streptomycin) were added to each well of a 24 well tissue culture plate (Falcon), and mixed with an equal volume of serum-free RPMI-1640 medium containing analog. Medium containing 5% serum, antibiotics ± analog was replaced every other day. Each of the heteroatom substituted analogs was prepared as a 100 mM stock solution in 100% ethanol and stored at -90° C. prior to dilution in the serum-free RPMI-1640 medium. The maximum final ethanol concentration reached after dilution of the different analogs in media was 0.1%. Therefore, uninfected and infected H9 cells, treated with or without 0.1% ethanol, were used as controls for each test. Ethanol alone had no demonstrable effects.
Except for the preliminary screening of the various (coded) analogs which was done twice, all other assays were performed at least three times. Samples were tested in duplicate each time the assay was repeated.
Virus Assays. Virus was quantitated using supernatant solutions of cells harvested on day 8 (m.o.i.=0.01) or day 10 (m.o.i.=0.001) of treatment. Virions were concentrated 10 fold by precipitation of culture supernatants with a solution of polyethylene glycol (30% in 150 mM NaCl, 0.1 mM phenylmethylsulfonylfluoride). The precipitates were solubilized and virus-associated reverse transcriptase (RT) activity measured by [^32 P]TTP incorporation using a poly(rA)-oligo(dT) template [Poiesz et al., Proc. Natl. Acad. Sci. USA 77, 7415-7419 (1980)]. Cell supernatants were also tested for virus-specific antigen using a p24 ELISA from Dupont (Wilmington, DE). This assay can detect as little as 0.03 ng of antigen/mL (antigen=p24, the major structural nucleocapsid protein of HIV-1, as well as its precursor, Pr55^gag).
HIV-1 Replication in H9 Cells is Inhibited by Treatment with Heteroatom-Containing Analogs of Myristate. […]

Series [3] concerns MoMLV. In words: MoMLV replication: LZ1 virus titer by histochemical staining of NIH 3T3 cells for β-galactosidase. Format: cell-based, Maloney murine leukemia virus. An excerpt: Panel A -Schematic representation of the MoMLV assay system. […] This cell produces infectious, replication defective virus (designated (LZ1) which carries the LacZ gene. When NIH3T3 cells are exposed to supernatant taken from the LZ1 virus producing cells, they are initially infected and their progeny are detectable by histochemical staining for β-galactosidase. Thus, the titer of the virus produced by the LZ1 cells after treatment with the various agents, can be readily determined by counting the number of blue NIH3T3 cells. Replication competent MoMLV is not detected using this assay system since the lacZ gene product is not present. Panel B - The effect of 6-oxamyristic acid and 13-oxamyristic acid on LZ1 virus production. The results represent the mean (+1 standard deviation) of three independent tests each done in duplicate. Panel C - Number of viable LZ1 producing cells at the end of a 2 day treatment with analog as measured by trypan blue exclusion. The results of duplicate assays were averaged. Panel D - The effects of analog treatment on incorporation of [^3 H]leucine. Cells in duplicate wells were pulse labeled for 4 h following three days of incubation with analog or ethanol (0.1%). Duplicate assays were performed. The results were averaged and expressed as a percentage of the results obtained from untreated cells.
Assay of the Effects of Analogs on the Replication of Maloney Murine Leukemia Virus. The LZ1 titer assay was developed for rapid histochemical quantitation of infectious virus production. In brief, the LZ1 virus-producing cell line was derived by Sanes et al., EMBO J. 5, 3133-3142 (1986), from the .PSI.-2 cell line. .PSI.-2-cells are NIH 3T3 cells that contain a stably integrated packaging mutant (pMOV-.PSI.-) of MoMLV. This mutant has a deletion of 350 nucleotides between the 5' donor splice site for env and the initiator methionine codon for Pr65^gag [Mann et al., Cell 33, 153-159 (1983)]. The LZ1 cell line is a subclone of .PSI.-2 cells that were co-transfectd with pM-MuLV-SV-LacZ [Sanes et al., supra.]and pSVTK neoB and then selected for G418 (Geneticin®) antibiotic resistance and production of defective MoMLV containing the E. coli β-galactosidase gene [Sanes et al., supra.]. The recombinant virus produced by LZ1 cells is capable of primary infection of NIH 3T3 cells but is replication defective [Sanes et al., surpa.]. Infected NIH 3T3 containing the lac-Z gene can be identified by histochemical staining for β-galactosidase activity.
To assess the effects of analog treatment on MoMLV replication, 1 × 10^5 LZ1 producing cells were added to each well of a 24-well tissue culture plate in 1 mL of Dulbecco's Modified Eagle's medium (DME) containing calf serum (final concentration =10%), penicillin (100 IU/mL), streptomycin (100 μg/mL) with or without analog (10-100 μM). After 24 h, the media was removed and fresh serum-containing media ±analog was added. The next day (48 hours after plating), the virus containing supernatant was removed and passed through a 0.2 μm filter. Various size aliquots (25-100 μL of the 1 mL filtrate) were added to 1 × 10^4 NIH 3T3 cells contained in 1 mL of DME/10% calf serum/penicillin/streptomycin. These indicator cells had been plated 24 h earlier in 24 well tissue culture plates. Polybrene (Sigma) was added at the same time as the filtrate so that its final concentration was 10 μg/mL. […]

Series [4] deals with myristoyl CoA: protein N-myristoyl transferase (NMT). Description: Ability to act as substrate for NMT. Format: biochemical. An excerpt:
Purification and use of this enzyme are described, for example, by Towler et al., Proc. Natl. Acad. Sci. USA 84, 2708-2712 (1987); J. Biol. Chem. 262, 1030-1036 (1987).

Series [5] is described as follows: Hydrophobicity. As to conditions: thioether moiety introduced into the fatty acid chain. Format: physicochemical.
For series [6], the system named is virus. Description: Antiviral effectiveness compared with C13-C14 analogs. As to conditions: C16 saturated fatty acid analog.
Series [7] concerns AIDS virus (HIV). As to conditions: cited from earlier work.

With `CCCCCCCCCC(=O)O` [decanoic acid, reference compound], the “effect on number of syncytia” value in series [1] is “no effect on the number of synctia”. Also, the activity at 100 µM in series [2] is 80%. The “reduction of MoMLV titers compared to untreated controls” value in series [3] (10-100 μM, 2 day treatment of LZ1 cells) is “no significant reductions”.
As for `CCSCCCCCCCCCCC(=O)O` [12thiamyristate, 11-(Ethylthio)undecanoic acid], in series [2], the “effect on reverse transcriptase activity” value is listed as “More pronounced effects”. Moreover, in series [4], the “ability to act as a substrate for NMT” value is recorded as “leaves intact its ability to act as a substrate”. In series [5], the hydrophobicity entry was “decreases its hydrophobicity”.
Consider `CCCCOCCCCCCCCCCC(=O)O` [Compound I, 11-(1-butoxy)undecanoic acid], for which the “effectiveness versus analogs based on C13-C14 fatty acids” value in series [6] is “less effective than the analogs based on C13 -C14 fatty acids”.
Regarding `Cc1cn([C@H]2C[C@H](N=[N+]=[N-])[C@@H](CO)O2)c(=O)[nH]c1=O` [AZT, 3'-azido-3'-deoxythymidine, reference compound], the inhibition at 5 µM in series [2] (Human immunodeficiency virus 1, H9, read-out: inhibition of viral replication in the H9 acute assay) is over 90%. In addition, the “inhibition of replication of the virus in vitro” value in series [7] is “shown to inhibit replicaton of the virus in vitro”.
Turning to `CCCCCCCCOCCCCC(=O)O` [6-oxamyristate, 5-(octyloxy)pentanoic acid], in series [2], the “effect on reverse transcriptase activity” value was “No reduction in reverse transcriptase activity” and the activity at 100 µM worked out at 20%. In addition, the “relative efficacy on HIV-1 production” value in series [2] (1-100 μM, H9 cells, ranking among the four analogs) is “least effective”. For the same compound, in series [2] (H9 cells), the “effect on HIV-1 production / replication” value was “no effect on HIV-1 replication”. The inhibition at 100 µM in series [3] (Murine leukemia virus, NIH3T3, 48 h, read-out: average reduction in virus titers (MoMLV)) was over 60%. Also, in series [3] (Murine leukemia virus, NIH3T3, 48 h, read-out: reduction in MoMLV replication (virus titer)), the inhibition at 10 µM worked out at 40%. The “effect on MoMLV replication” value in series [3] (up to 100 μM, 2 day treatment of LZ1 cells) is reported as “inhibits MoMLV replication in a concentration dependent fashion”.
Regarding `CCCOCCCCCCCCCC(=O)O` [11oxamyristate, 10-(Propoxy)decanoic acid], the “effect on reverse transcriptase activity” value in series [2] is given as “More pronounced effects”.
